What was measured:
I338G v-Src = biological target: T1, I338G v-Src (Rous sarcoma virus subgroup A, UniProt P00524, DEL77-225/I338G); test: biochemical; assay type: biochemical; conditions: Table 3; read-out: IC50, 1338G v-Src
T1 construct: screened against the catalytic domain of the target kinase, I338G v-Src; made in house; host or cells: E. coli DH5a, pGEX-KT

WT v-Src = biological target: T2, WT v-Src (Rous sarcoma virus subgroup A, UniProt P00524, DEL77-225); test: biochemical; assay type: biochemical; conditions: Table 3, wild type; read-out: IC50, vSrc
T2 construct: mutant of the v-Src catalytic domain, (the XD4 fragment) were made as glutathione S-transferase (GST) fusion proteins; made in house; host or cells: E. coli (DH5a), pGEX-KT

[1] = system: panel of wild-type protein kinases (v-src, Fyn, c-Abl, CAMK IIα, CDK2); test: In vitro inhibition, panel of wild-type protein kinases; assay type: biochemical
[2] = system: I338G v-Src, T339G Fyn, T315A Abl, F89G CAMK IIα and F80G CDK2; test: In vitro inhibition, panel of engineered protein kinases; assay type: biochemical
Cdc28-as1 (F88G Cdc28) = biological target: T3, Cdc28-as1 (F88G Cdc28) (Saccharomyces cerevisiae, UniProt P00546, F88G); test: In vitro sensitivity of Cdc28 kinases to PP1 derivatives (Example 19); assay type: biochemical; conditions: read-out: IC50, engineered Cdc28
T3 construct: made in house

cdc28-as1 strain = test: Yeast growth; assay type: cell-based, Saccharomyces cerevisiae
Method: (§1) Yeast Plasmid and Strain Construction: Media and genetic and microbial techniques were essentially as described (148, 153). All strains were derivatives of W30-3 (ura3-a, leu2-3, 112, trpl-1, his3-11,15, ade2-1, can1-100, GAL+). All strains were grown at 23° C. unless otherwise noted. To create cdc28-as1, the CDC28 coding sequence and 400 bp of 5′-and 386 bp of 3′-flanking DNA was PCR-amplified from genomic DNA and ligated into pRS306 to make pJAU1. The F88G mutation was engineered by oligonucleotide-directed mutagenesis of pJAU1. The plasmid was integrated into the wild-type CDC28 locus following AflII digestion by a pop-in-pop-out strategy as described (148, 153).
as §1, with “To examine the function of Cdc28 in vivo, a yeast strain in which the wild-type copy of CDC28 was replaced by cdc28-as1 was constructed.” for “Yeast Plasmid and Strain Construction:”, “W303 (ura3-1,” for “W30-3 (ura3-a,”, “cdc28-as1 ,” for “cdc28-as1,”, “5′- and” for “5′-and”, “AfII” for “AflII”

wild-type strain (CDC28) = test: Yeast growth; assay type: cell-based, Saccharomyces cerevisiae
Method: as §1
as §1, with “To examine the function of Cdc28 in vivo, a yeast strain in which the wild-type copy of CDC28 was replaced by cdc28-as1 was constructed.” for “Yeast Plasmid and Strain Construction:”, “W303 (ura3-1,” for “W30-3 (ura3-a,”, “cdc28-as1 ,” for “cdc28-as1,”, “5′- and” for “5′-and”, “AfII” for “AflII”

[3] = system: Fus3-as1 expressing yeast; test: Yeast mating assay for Fus3 function; assay type: cell-based, Saccharomyces cerevisiae; conditions: 50 μM
[4] = system: wild-type Fus3 expressing yeast; test: Yeast mating assay for Fus3 function; assay type: cell-based, Saccharomyces cerevisiae; conditions: all concentrations up to 50 μM
[5] = system: S. cerevisiae expressing wild-type Fus3, Fus3-as1, or no Fus3; test: Non-selective cytotoxicity control, mating cultures plated on YPD; assay type: cell-based, Saccharomyces cerevisiae; conditions: any of the three strains
Cdc28-as1 · MBP-Clb2 = biological target: T4, Cdc28-as1 · MBP-Clb2 (Saccharomyces cerevisiae, UniProt P00546, F88G); test: 1-NM-PP1 IC50, Histone H1 kinase assay; assay type: biochemical; conditions: 1 MM ATP
T4 construct: made in house; host or cells: Sf9 insect cells, baculovirus, co-infected with Cak1-HA3 (Cdc28-as1-His6); bacteria (MBP-Clb2)
Method: Phosphate incorporation was determined at each inhibitor concentration by scintillation counting.
Cdc28-as1 is highly sensitive to 1-NM-PP1 in vitro and is a slightly weakened kinase.

cdc28-as1 cells [6] = test: DNA content (flow cytometry) and morphology of yeast cells; assay type: cell-based, Saccharomyces cerevisiae; conditions: for cell cycle effect (G2/M DNA content, large hyperpolarized buds): asynchronous cells
Method: DNA flow cytometry: Approximately 1×10^7 cells for each sample were fixed in 70% ethanol, resuspended in 50 mM Tris-HCl pH 8.0, briefly sonicated, digested with 2mg/ml RNase for 2 hours at 37° C., and resuspended in 0.2 ml protease solution (5 mg/ml pepsin. 0.5% concentrated HCl ) and digested for 45 minutes at 37° C. DNA was stained with 1μM Sytox Green (Molecular Probes) in 50 mM Tris-HCl pH 7.5 and 20,000 cells from each sample were scanned with a FACScan FACS machine (Becton-Dickinson).
Thus, it appears possible to titrate the level of Cdc28-as1 activity in vivo, allowing the identification of cell cycle events that are differentially sensitive to decreases in the catalytic activity of Cdc28.
When cdc28-as1 cells were synchronized in G1 with the yeast mating pheromone, α-factor factor, and then released into fresh media containing 500 nM 1-NM-PP 1, initiation of budding and DNA synthesis were delayed about 30 to 60 minutes, while accumulation of the mitotic cyclin Clb2 was delayed 60 to 90 minutes. […] Thus, cells treated with low concentrations of the inhibitor are slightly delayed during progression through early stages of the cell cycle, but eventually arrest due to a failure to assemble a mitotic spindle and enter mitosis.
These cells eventually budded after 180 to 240 minutes and arrested with a IC DNA content, large hyperpolarized buds, a single DNA mass in the mother cell, and an interphase astral microtubule array.

[7] = system: cdc28-as1 strain lacking PCL1 and PCL2; test: Budding and DNA content after release from G1; assay type: cell-based, Saccharomyces cerevisiae; conditions: G1 synchronized, released into 5,000 nM
Method: Pho85, a Cdk that is closely related to Cdc28, has been implicated in the initiation of budding in S. cerevisiae (128, 129). Therefore, the budding observed in cdc28-as1 cells released into 5,000 nM 1-NM-PP1 due to residual Cdc28-as1 activity or due to Pho85 activity was investigated. A cdc28-as1 strain lacking PCL1 and PCL2, which encode the two G1 activating cyclins of Pho85 were constructed. […] It was concluded that Pc11- and Pc12-associated Pho85 activity, and not residual Cdc28 activity, are responsible for the greatly delayed budding observed in cdc28-as1 cells treated with high concentrations of inhibitor.

cdc28-as1 cells [8] = test: Genome-wide transcription, oligonucleotide DNA arrays; assay type: cell-based, Saccharomyces cerevisiae
Text: (§2) Error bars represent standard errors of the means.
(§3) Changes were deemed significant if they were greater than or equal to 2-fold or if the transcript changed present/absent status (as indicated by Affymetrix software) in the following comparisons: for non-specific drug effects: CDC28+1-NM-PP1 vs. CDC28; for cdc28-as1 effects: cdc28-as1 vs. CDC28.

wild-type cells = test: as above; assay type: cell-based, Saccharomyces cerevisiae
Text: as §2, §3

wild-type c-Abl = biological target: T5, wild-type c-Abl (Homo sapiens, UniProt P00519); test: In vitro inhibition by K252a; assay type: biochemical
T5 construct: GST; made in house

protein kinase A = protein kinase A (Homo sapiens, UniProt P17612); conditions: reported (89, 90); cited from earlier work
[9] = biological target: cGMP dependent protein kinase; conditions: reported (89, 90); cited from earlier work
[10] = system: Trk family tyrosin kinases; conditions: reported (89, 90); cited from earlier work
[11] = G1 synchronized with α-factor, released into 500 nM
[12] = G1 synchronized, released into 5,000 nM

T3 sequence (P00546 whole entry F88G): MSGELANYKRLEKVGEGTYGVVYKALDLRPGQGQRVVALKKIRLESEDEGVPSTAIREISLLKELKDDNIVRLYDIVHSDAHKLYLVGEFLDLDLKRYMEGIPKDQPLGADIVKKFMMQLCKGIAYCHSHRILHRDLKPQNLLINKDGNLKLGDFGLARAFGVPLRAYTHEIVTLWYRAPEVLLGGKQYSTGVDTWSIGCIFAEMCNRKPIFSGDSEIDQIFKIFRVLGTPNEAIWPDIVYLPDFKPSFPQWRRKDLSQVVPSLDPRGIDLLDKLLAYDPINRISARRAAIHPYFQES
T3 sequence (P24869 whole entry, further chain): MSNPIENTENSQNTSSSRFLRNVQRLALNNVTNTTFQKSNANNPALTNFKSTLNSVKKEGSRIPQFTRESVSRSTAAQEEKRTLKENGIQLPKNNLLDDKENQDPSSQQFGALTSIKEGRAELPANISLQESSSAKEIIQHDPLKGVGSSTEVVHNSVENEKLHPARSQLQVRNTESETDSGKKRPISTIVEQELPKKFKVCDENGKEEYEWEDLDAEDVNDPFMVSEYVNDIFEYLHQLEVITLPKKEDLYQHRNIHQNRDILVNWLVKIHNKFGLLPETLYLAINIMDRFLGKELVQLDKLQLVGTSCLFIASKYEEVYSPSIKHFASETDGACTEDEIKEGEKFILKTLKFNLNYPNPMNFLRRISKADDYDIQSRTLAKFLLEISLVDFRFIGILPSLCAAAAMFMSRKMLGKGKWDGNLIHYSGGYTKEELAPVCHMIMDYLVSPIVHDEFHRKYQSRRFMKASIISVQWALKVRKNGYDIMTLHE
T4 sequence (P00546 whole entry F88G): as the sequence (P00546 whole entry F88G) above
T4 sequence (P24869 whole entry, further chain): as the sequence (P24869 whole entry, further chain) above
T5 sequence (P00519 whole entry): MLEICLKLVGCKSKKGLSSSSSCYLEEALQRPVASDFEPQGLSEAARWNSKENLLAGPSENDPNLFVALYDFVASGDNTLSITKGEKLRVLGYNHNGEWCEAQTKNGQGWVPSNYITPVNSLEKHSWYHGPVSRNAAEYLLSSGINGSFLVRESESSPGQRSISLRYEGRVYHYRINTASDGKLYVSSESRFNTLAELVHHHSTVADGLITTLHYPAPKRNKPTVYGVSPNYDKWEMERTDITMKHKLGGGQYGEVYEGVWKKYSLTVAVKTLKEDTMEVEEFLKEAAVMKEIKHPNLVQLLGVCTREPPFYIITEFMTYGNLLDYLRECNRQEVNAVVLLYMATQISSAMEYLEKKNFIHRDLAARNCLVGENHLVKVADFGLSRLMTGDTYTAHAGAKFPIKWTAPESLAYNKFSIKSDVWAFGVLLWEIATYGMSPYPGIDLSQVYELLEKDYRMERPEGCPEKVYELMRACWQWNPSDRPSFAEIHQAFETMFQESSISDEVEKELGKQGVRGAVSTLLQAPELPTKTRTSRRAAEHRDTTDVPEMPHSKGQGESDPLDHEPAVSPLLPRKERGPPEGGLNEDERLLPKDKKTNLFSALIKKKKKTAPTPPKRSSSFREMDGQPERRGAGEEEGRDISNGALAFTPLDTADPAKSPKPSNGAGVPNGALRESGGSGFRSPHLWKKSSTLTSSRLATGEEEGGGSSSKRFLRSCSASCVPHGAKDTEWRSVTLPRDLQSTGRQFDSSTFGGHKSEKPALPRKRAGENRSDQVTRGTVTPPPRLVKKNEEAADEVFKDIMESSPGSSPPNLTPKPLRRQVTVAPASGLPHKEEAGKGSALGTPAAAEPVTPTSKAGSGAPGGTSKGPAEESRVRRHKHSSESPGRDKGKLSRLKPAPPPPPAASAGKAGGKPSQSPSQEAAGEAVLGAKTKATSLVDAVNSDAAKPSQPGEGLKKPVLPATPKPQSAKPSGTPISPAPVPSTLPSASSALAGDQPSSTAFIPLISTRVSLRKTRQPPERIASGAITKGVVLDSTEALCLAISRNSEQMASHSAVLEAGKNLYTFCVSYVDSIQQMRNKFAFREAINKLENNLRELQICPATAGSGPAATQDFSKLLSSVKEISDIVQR

**Q.** With `CC(C)(C)n1nc(Cc2cccc3ccccc23)c2c(N)ncnc21` [Compound 6h, 4-amino-1-(tert-butyl)-3-(1′-naphthylmethyl)pyrazolo[3,4-d]pyrimidine] as the molecule, how does the IC50 (I338G v-Src) read?
**A.** 4.2 nM

**Q.** What about the IC50 (WT v-Src) of the same molecule?
**A.** 28000 nM

**Q.** And the “concentration at which wild-type kinases are inhibited” value ([1]; none inhibited below this concentration)?
**A.** ≥ 1 µM

**Q.** What about the “inhibition of engineered kinases (in words)” value [2] of the same molecule?
**A.** the most potent inhibitor of every engineered kinase tested

**Q.** What about the IC50 ([2]; within a 3 fold range, read-out: IC50 for all of the glycine mutants) of the same molecule?
**A.** < 10 nM

**Q.** What about the IC50 (Cdc28-as1 (F88G Cdc28)) of the same molecule?
**A.** 3.9 nM

**Q.** And the “growth of yeast which express Cdc28-as1” value (cdc28-as1 strain)?
**A.** completely ablated

**Q.** And the “inhibitor concentration for complete growth arrest” value (cdc28-as1 strain)?
**A.** above 500 nM

**Q.** What about the IC50 (cdc28-as1 strain; in vivo, read-out: inhibitor concentration at which growth is inhibited 50%) of the same molecule?
**A.** 50 to 100 nM

**Q.** What about the “proliferation of wild-type cells” value (wild-type strain (CDC28)) of the same molecule?
**A.** unaffected by the inhibitor except at very high concentrations

**Q.** What about the “growth of wild-type strains” value (wild-type strain (CDC28); same concentrations) of the same molecule?
**A.** had no effect on the growth of wild-type strains

**Q.** And the “decrease of Fus3-as1 mediated mating” value [3]?
**A.** 85 fold

**Q.** What about the mating efficiency [4] of the same molecule?
**A.** no decrease in mating efficiency

**Q.** What about the “cfu/mL on YPD plates (non-selective cytotoxicity)” value [5] of the same molecule?
**A.** No significant decrease in cfu/mL on YPD plates

**Q.** What about the IC50 (Cdc28-as1 · MBP-Clb2) of the same molecule?
**A.** ~3 nM

**Q.** What about the “delay of accumulation of the mitotic cyclin Clb2” value (cdc28-as1 cells [6]; [11]) of the same molecule?
**A.** 60 to 90 min

**Q.** What about the “delay of initiation of budding and DNA synthesis” value (cdc28-as1 cells [6]; [11]) of the same molecule?
**A.** 30 to 60 min

**Q.** What about the terminal arrest phenotype (cdc28-as1 cells [6]; G1 synchronized, released into 500 nM) of the same molecule?
**A.** arrest with moderate Clb2 levels, highly hyperpolarized buds, and a G2M DNA content

**Q.** And the arrest phenotype (cdc28-as1 cells [6]; [12])?
**A.** arrested with a IC DNA content and initially failed to bud

**Q.** What about the “time after which cells eventually budded” value (cdc28-as1 cells [6]; [12]) of the same molecule?
**A.** 180 to 240 min

**Q.** And the “cell cycle effect (G2/M DNA content, large hyperpolarized buds)” value (cdc28-as1 cells [6]; 50 nM)?
**A.** delay

**Q.** And the “cell cycle effect (G2/M DNA content, large hyperpolarized buds)” value (cdc28-as1 cells [6]; 500 nM)?
**A.** arrest

**Q.** And the cell cycle effect (cdc28-as1 cells [6]; asynchronous cells, 5,000 nM)?
**A.** non-uniform arrest that included unbudded GI cells as well as large-budded G2/M cells

**Q.** What about the arrest phenotype [7] of the same molecule?
**A.** arrested with a 1C DNA content and never budded, even after 6 hours

**Q.** And the G2/M transcription (cdc28-as1 cells [8]; 500 nM, 120 minutes)?
**A.** causes a drop in G2/M transcription

**Q.** What about the “down-regulated transcripts that are cell cycle-regulated” value (cdc28-as1 cells [8]; 500 nM, two hours) of the same molecule?
**A.** 60 transcripts

**Q.** What about the “down-regulated transcripts with peak expression at G2/M” value (cdc28-as1 cells [8]; 500 nM, two hours) of the same molecule?
**A.** 32 transcripts

**Q.** What about the “number of genes with […] or greater decreases” value (cdc28-as1 cells [8]; 500 nM, two hours) of the same molecule?
**A.** 66 genes

**Q.** And the “number of genes with […] or greater increases” value (cdc28-as1 cells [8]; 500 nM, two hours)?
**A.** 38 genes

**Q.** And the “down-regulation of the Cln-Cdc28 inhibitor Far 1 transcript” value (cdc28-as1 cells [8]; two-hour drug exposure)?
**A.** 20 fold

**Q.** And the “effects on wild-type cell physiology” value (wild-type cells; 500 nM)?
**A.** has no significant effects on wild-type cell physiology

**Q.** What about the “number of genes whose transcription changed greater than two-fold” value (wild-type cells; 500 nM, 30 minutes) of the same molecule?
**A.** 6 genes

**Q.** What about the “share of genes whose transcription changed greater than two-fold” value (wild-type cells; 500 nM, 30 minutes) of the same molecule?
**A.** 0.1%

**Q.** What about the “number of genes changed” value (wild-type cells; 120 minutes) of the same molecule?
**A.** 3 genes

**Q.** Which results are given for `COC(=O)[C@@]1(O)C[C@H]2O[C@]1(C)n1c3ccccc3c3c4c(c5c6ccccc6n2c5c31)C(=O)NC4` [Compound K252a, (+)-K252a]?
**A.** inhibition of wild-type Abl (wild-type c-Abl): not effectively inhibited; inhibition of wild-type protein kinases (in words) [1]: can efficiently inhibit Src family kinases, cyclin dependent kinases, and calmodulin dependent kinases; IC50 (protein kinase A): ≤ 30 nM; IC50 [9]: ≤ 30 nM; IC50 [10]: ≤ 30 nM
